In patent US9975854B2, “Benzomorphan analogs and use thereof” (Purdue Pharma L.P., priority 2014, dated 2018):
Like-named read-outs stand apart in the source and are kept apart here.

Molecular target: μ-opioid receptor (Homo sapiens (Human), UniProt P35372)
Test: μ-opioid receptor [35S]GTPγS functional assay, HEK-293 or CHO cells
Assay type: biochemical
Conditions: HEK-293 or CHO cells; for EC50: read-out: GTPγS μ EC50; for Emax: relative to DAMGO
Method: [^35S]GTPγS functional assays were conducted using freshly thawed μ-receptor membranes prepared in-house from a cell line expressing recombinant opioid receptor in a HEK-293, CHO or U-2 OS cell background, or purchased from a commercial source (Perkin Elmer, Shelton, Conn.; or DiscovRx, Fremont, Calif.). Assay reactions were prepared by sequentially adding the following reagents to binding buffer (100 mM NaCl, 10 mM MgCl2, 20 mM HEPES, pH 7.4) on ice (final concentrations indicated): membrane protein (0.026 mg/mL), saponin ([…]), GDP ([…]) and [^35S]GTPγS (0.20 nM; Perkin Elmer, Shelton, Conn.). The prepared membrane solution (190 μl/well) was transferred to 96-shallow well polypropylene plates containing 10 μl of 20× concentrated stock solutions of the agonist [D-Ala^2, N-methyl-Phe^4 Gly-ol^5]-enkephalin (DAMGO) prepared in dimethyl sulfoxide (DMSO). Plates were incubated for 30 min at about 25° C. with shaking. Reactions were terminated by rapid filtration onto 96-well Unifilter GF/B filter plates (Perkin Elmer, Shelton, Conn.) using a 96-well tissue harvester (Perkin Elmer, Shelton, Conn.) followed by three filtration washes with 200 μl of ice-cold wash buffer (10 mM NaH2PO4, 10 mM Na2HPO4, pH 7.4). Filter plates were subsequently dried at 50° C. for 2-3 hr. BetaScint scintillation cocktail (Perkin Elmer, Shelton, Conn.) was added (50 μl/well) and plates were counted using a Packard Top-Count for 1 min/well. Data were analyzed using the sigmoidal dose-response curve fitting functions in GraphPad PRISM v. 3.0, or an in-house function for non-linear, sigmoidal dose-response curve-fitting.
μ GTP EC50 is the concentration of a compound providing 50% of the maximal response for the compound at a μ-opioid receptor.
μ GTP Emax (%) is the maximal effect elicited by a compound relative to the effect elicited by DAMGO, a standard p agonist. Generally, the μ GTP Emax (%) value measures the efficacy of a compound to treat or prevent pain or other Conditions.
In TABLE 4, activity response of certain Compounds of the Invention to the μ- and κ-opioid receptors was determined as described above for functional assays using HEK-293 or CHO cells.

Q: For CN1CC[C@@]2(C)c3cc(O)ccc3C[C@@H]1[C@H]2NCCC1CCCCC1 [Compound 17, (2R,6S,11 S)-11-((2-cyclohexylethyl)amino)-3,6-dimethyl-1,2,3,4,5,6-hexahydro-2,6-methanobenzo[d]azocin-8-ol], which EC50 is on record?
A: Its EC50 is 0.0929 ± 0.00079 µM.

Q: What about the Emax of the same molecule?
A: The Emax was 55.3 ± 4.1%.

Q: With CN1CC[C@@]2(C)c3cc(C(N)=O)ccc3C[C@@H]1[C@@H]2N(C)C(=O)Cc1ccccc1 [Compound 124, (2R,6S,11R)-3,6-dimethyl-11-(N-methyl-2-phenylacetamido)-1,2,3,4,5,6-hexahydro-2,6-methanobenzo[d]azocine-8-carboxamide] as the molecule, how does the EC50 read?
A: The EC50 was 3.54 ± 0.48 µM.

Q: And the Emax?
A: Its Emax is 81.6 ± 3.37%.

Q: For CN1CCC2(C)c3cc(O)ccc3C[C@@H]1C2NC(=O)Cc1ccsc1 (stereo in doubt) [Compound 31, N-((2R,6S,11S)-8-hydroxy-3,6-dimethyl-1,2,3,4,5,6-hexahydro-2,6-methanobenzo[d]azocin-11-yl)-2-(thiophen-3-yl)acetamide], which EC50 (bound given in uM) is on record?
A: Its EC50 is over 20 µM.

Q: What about the Emax of the same molecule?
A: The Emax was 1%.

Q: Which results are given for CN1CC[C@@]2(C)c3cc(O)ccc3C[C@@H]1[C@@H]2N(CCc1ccc(F)cc1)CC(N)=O [Compound 74, 2-((4-fluorophenethyl)-((2R,6S,11R)-8-hydroxy-3,6-dimethyl-1,2,3,4,5,6-hexahydro-2,6-methanobenzo[d]azocin-11-yl)amino)acetamide]?
A: EC50: 0.00112 ± 0.00017 µM; Emax: 83.2 ± 3.47%

Q: Which results are given for CN1CC[C@@]2(C)c3cc(O)ccc3C[C@@H]1[C@@H]2NC(=O)CC(=O)Nc1ccc(F)cc1F [Compound 30, N^1-(2,4-difluorophenyl)-N^3—((2R,6S,11R)-8-hydroxy-3,6-dimethyl-1,2,3,4,5,6-hexahydro-2,6-methanobenzo[d]azocin-11-yl)malonamide]?
A: EC50 (bound given in uM): > 20 µM; Emax: 2.67 ± 3.67%

Q: For CCn1c(NC(=O)N(C)[C@H]2[C@H]3Cc4ccc(O)cc4[C@]2(C)CCN3C)nc2ccccc21 [Compound 112, 3-(1-ethyl-1H-benzo[d]imidazol-2-yl)-1-((2R,6S,11R)-8-hydroxy-3,6-dimethyl-1,2,3,4,5,6-hexahydro-2,6-methanobenzo[d]azocin-11-yl)-1-methylurea], which EC50 is on record?
A: Its EC50 is 0.0141 ± 0.00052 µM.

Q: What about the Emax of the same molecule?
A: Its Emax is 84.2 ± 0.94%.

Q: What does the source list for CN1CC[C@@]2(C)c3cc(O)ccc3C[C@@H]1[C@@H]2N(C)C(=O)Nc1nc2ccccc2[nH]1 [Compound 107, 3-(1H-benzo[d]imidazol-2-yl)-1-((2R,6S,11R)-8-hydroxy-3,6-dimethyl-1,2,3,4,5,6-hexahydro-2,6-methanobenzo[d]azocin-11-yl)-1-methylurea]?
A: EC50: 0.00681 ± 0.00286 µM; Emax: 30.6 ± 1.51%

Q: With CN1CC[C@]2(C)c3cc(O)ccc3CC1[C@@H]2C(=O)N1CCCCC1 [Compound 106, ((6S,11R)-8-hydroxy-3,6-dimethyl-1,2,3,4,5,6-hexahydro-2,6-methanobenzo[d]azocin-11-yl)(piperidin-1-yl)methanone] as the molecule, how does the EC50 read?
A: Its EC50 is 4.09 ± 0.334 µM.

Q: And the Emax?
A: Its Emax is 49 ± 1.73%.

Q: CN1CC[C@@]2(C)c3cc(O)ccc3C[C@@H]1[C@@H]2NCc1ccccc1 [Compound 108, (2R,6S,11R)-11-(benzylamino)-3,6-dimethyl-1,2,3,4,5,6-hexahydro-2,6-methanobenzo[d]azocin-8-ol] was tested. Which EC50 did it give?
A: Its EC50 is 11.7 ± 3.29 µM.

Q: And the Emax?
A: The Emax was 17.1 ± 0.67%.

Q: For CCCN(C(=O)Nc1ccc(C#N)cc1)[C@H]1[C@H]2Cc3ccc(O)cc3[C@]1(C)CCN2C [Compound 92, 3-(4-cyanophenyl)-1-((2R,6S,11R)-8-hydroxy-3,6-dimethyl-1,2,3,4,5,6-hexahydro-2,6-methanobenzo[d]azocin-11-yl)-1-propylurea], which EC50 is on record?
A: Its EC50 is 0.0964 ± 0.00352 µM.

Q: What about the Emax of the same molecule?
A: Its Emax is 43.8 ± 1.03%.

Q: Which EC50 does the source give for CN1CC[C@@]2(C)c3cc(O)ccc3C[C@@H]1[C@@H]2NCCOc1ccccc1 [Compound 15, (2R,6S,11R)-3,6-dimethyl-11-((2-phenoxyethyl)amino)-1,2,3,4,5,6-hexahydro-2,6-methanobenzo[d]azocin-8-ol] here?
A: The EC50 was 0.124 ± 0.0204 µM.

Q: What about the Emax of the same molecule?
A: Its Emax is 97.7 ± 1.76%.

Q: How did the EC50 turn out when CN1CC[C@@]2(C)c3cc(O)ccc3C[C@@H]1[C@@H]2N(C)S(=O)(=O)Cc1ccccc1 [Compound 100, N-((2R,6S,11R)-8-hydroxy-3,6-dimethyl-1,2,3,4,5,6-hexahydro-2,6-methanobenzo[d]azocin-11-yl)-N-methyl-1-phenylmethane-sulfonamide] was run?
A: Its EC50 is 8.95 ± 2.04 µM.

Q: What about the Emax of the same molecule?
A: Its Emax is 25 ± 1.53%.

Q: Which results are given for CN1CC[C@@]2(C)c3cc(C(N)=O)ccc3C[C@@H]1[C@@H]2N(C)CCc1ccccc1 [Compound 123, (2R,6S,11R)-3,6-dimethyl-11-(methyl(phenethyl)amino)-1,2,3,4,5,6-hexahydro-2,6-methanobenzo[d]azocine-8-carboxamide]?
A: EC50: 0.0233 ± 0.00447 µM; Emax: 97.4 ± 0.2%

Q: What does the source list for CN(CC1CCN(S(=O)(=O)Cc2ccccc2)CC1)C1[C@H]2Cc3ccc(O)cc3C1(C)CCN2C (stereo in doubt) [Compound 58, (2R,6S,11S)-11-(((1-(benzylsulfonyl)piperidin-4-yl)methyl)(methyl)amino)-3,6-dimethyl-1,2,3,4,5,6-hexahydro-2,6-methanobenzo[d]azocin-8-ol]?
A: EC50: 0.0132 ± 0.00071 µM; Emax: 58 ± 7.55%

Q: What does the source list for CN1CC[C@@]2(C)c3cc(O)ccc3C[C@@H]1[C@@H]2N(C)CC1CCN(S(=O)(=O)C2CC2)CC1 [Compound 57, (2R,6S,11R)-11-(((1-(cyclopropylsulfonyl)piperidin-4-yl)methyl)(methyl)amino)-3,6-dimethyl-1,2,3,4,5,6-hexahydro-2,6-methanobenzo[d]azocin-8-ol]?
A: EC50: 0.0905 ± 0.0181 µM; Emax: 43 ± 1.53%

Q: For CN1CCC2(C)c3cc(O)ccc3C[C@@H]1C2NS(=O)(=O)Cc1ccccc1 (stereo in doubt) [Compound 101, N-((2R,6S,11S)-8-hydroxy-3,6-dimethyl-1,2,3,4,5,6-hexahydro-2,6-methanobenzo[d]azocin-11-yl)-1-phenylmethanesulfonamide], which EC50 (bound given in uM) is on record?
A: The EC50 was over 20 µM.

Q: What about the Emax of the same molecule?
A: The Emax was 6 ± 4.06%.

Q: How did the EC50 turn out when CN1CC[C@@]2(C)c3cc(C(N)=O)ccc3C[C@@H]1[C@H]2NCCc1ccccc1 [Compound 115, (2R,6S,11S)-3,6-dimethyl-11-(phenethylamino)-1,2,3,4,5,6-hexahydro-2,6-methanobenzo[d]azocine-8-carboxamide] was run?
A: The EC50 was 0.525 ± 0.0263 µM.

Q: What about the Emax of the same molecule?
A: The Emax was 83.4 ± 1.58%.

Q: Which results are given for CN1CC[C@@]2(C)c3cc(O)ccc3C[C@@H]1[C@H]2N(CCO)CCc1ccc(F)cc1 [Compound 77, (2R,6S,11S)-11-((4-fluorophenethyl)(2-hydroxyethyl)amino)-3,6-dimethyl-1,2,3,4,5,6-hexahydro-2,6-methanobenzo[d]azocin-8-ol]?
A: EC50: 0.00796 ± 0.00069 µM; Emax: 87 ± 1.73%

Q: With CC(C)CS(=O)(=O)N1CCC(CN(C)C2[C@H]3Cc4ccc(O)cc4C2(C)CCN3C)CC1 (stereo in doubt) [Compound 59, (2R,6S,11S)-11-(((1-(isobutylsulfonyl)piperidin-4-yl)methyl)(methyl)amino)-3,6-dimethyl-1,2,3,4,5,6-hexahydro-2,6-methanobenzo[d]azocin-8-ol] as the molecule, how does the EC50 read?
A: Its EC50 is 0.0528 ± 0.005 µM.

Q: What about the Emax of the same molecule?
A: The Emax was 27 ± 1.53%.

Q: Which EC50 (bound given in uM) does the source give for CN1CCC2(C)c3cc(O)ccc3C[C@@H]1C2NC(=O)Cc1ccccc1 (stereo in doubt) [Compound 29, N-((2R,6S,11S)-8-hydroxy-3,6-dimethyl-1,2,3,4,5,6-hexahydro-2,6-methanobenzo[d]azocin-11-yl)-2-phenylacetamide] here?
A: Its EC50 is over 20 µM.

Q: What about the Emax of the same molecule?
A: The Emax was 1%.

Q: What does the source list for CN1CC[C@@]2(C)c3cc(O)ccc3C[C@@H]1[C@H]2NCCc1ccc(S(C)(=O)=O)cc1 [Compound 11, (2R,6S,11S)-3,6-dimethyl-11-((4-(methylsulfonyl)phenethyl)amino)-1,2,3,4,5,6-hexahydro-2,6-methanobenzo[d]azocin-8-ol]?
A: EC50: 0.0356 ± 0.0059 µM; Emax: 16.7 ± 0.33%
